According to patent US20070148448A1, “Microencapsulated delivery vehicles including cooling agents” (Kimberly-Clark Worldwide, Inc., priority 2005, published 2007):

System: Methicillin-resistant Staphylococcus aureus
Settings: 0.005% (by weight) active PHMB
Procedure: This Example utilized 1.5-milliliter tubes containing a 1-milliliter blend of phosphate-buffered saline (pH 7.2) and 5% (w/v) bovine serum albumin soil. The tubes were placed in electric heat blocks set for 22° C., 30° C., 40° C. and 50° C., respectively. The tubes remained in the electric heat blocks for approximately 10 minutes.
Duplicate tubes without PHMB at each temperature were also made.
All of the tubes were then placed back into the heat blocks at their respective temperatures. […] The letheen samples were then plated in duplicate on Tryptic Soy agar plates using a WASP2 spiral plater (commercially available from Don Whitley Scientific, Ltd., Yorkshire, United Kingdom).
After 48 hours, the plates were evaluated using a total plate count to determine the biocidal efficacy of each sample.

Question: polyhexamethylene biguanide [PHMB] was tested. Which “difference in efficacy between 22° C. and 50° C.” value did it give?
Answer: greater than 1.4 LOG,o
